For data set [1] the following is noted: numerous studies; cited from earlier work.
The nature of data set [2]: Eclipse sub-study, cycle 3 dosimetry (16 patients). The format is in vivo, human. Conditions: cycle 3, 16 patients. The protocol:
To evaluate potential changes in the tracer's kinetics and uptake after multiple treatment cycles, 16 of the 27 patients included in the dosimetry sub study, were imaged at both cycle 1 and cycle 3. Among these, at cycle 3, three patients were imaged at all 4 timepoints and the other 13 were imaged at one or two timepoints only (24 h, 48 h or both 24 h and 48 h) (Table 7 in Appendix 1). For these 13 patients, the TACs obtained at cycle 1 were used for each source organ and scaled to the normalized activity value(s) measured at Cycle 3. For patients imaged at two timepoints, the TACs were preferably scaled using the average scaling factor between the two timepoints.
A subgroup of 16 out of the 27 patients underwent and additional dosimetry assessment at Cycle 3. Among these, three patients had dosimetry performed based on images taken at 4 timepoints, while the remaining patients had dosimetry performed at 1 or 2 imaging timepoints only, as described in Section 4.4.1.
The organ absorbed radiation doses were compared to the mean organ absorbed radiation doses from Cycle 1 for the same subset of patients, as shown in Table 5. The dosimetry estimations obtained at cycle 3 align closely with those from cycle 1. At this timepoint, the kidneys had the highest dose (0.49±0.19 Gy/GBq) but, for most organs, the estimated absorbed dose values were similar to or lower compared to cycle 1. […]

In the next data set the test system is prostate cancer. Conditions: in vivo; cited from earlier work.

Structures are written as SMILES.

`O=C([O-])CC[C@H](NC(=O)N[C@@H](CCCCNC(=O)CCCCCCC(=O)NCCCC[C@@H](NC(=O)[C@@H](Cc1ccccc1)NC(=O)[C@@H](Cc1ccc(O)c(I)c1)NC(=O)CC[C@H](C(=O)[O-])N1CCN(CC(=O)[O-])CCN(CC(=O)[O-])CCN(CC(=O)[O-])CC1)C(=O)[O-])C(=O)[O-])C(=O)[O-].[177Lu+3].[H+].[H+].[H+].[H+].[H+]` [^177Lu-PSMA I&T, (3S,7S,26R,29R,32R,37R)-29-benzyl-32-(4-hydroxy-3-iodobenzyl)-5,13,20,28,31,34-hexaoxo-37-(4,7,10-tris(carboxymethyl)-1,4,7,10-tetraazacyclododecan-1-yl)-4,6,12,21,27,30,33-heptaazaheptatriacontane-1,3,7,26,37-pentacarboxylic acid; lutetium-177 (III)]: the safety and tolerability entry in data set [1] is “safe and well tolerated”. Also, in data set [2], the “absorbed dose, kidneys” value was 0.49±0.19 Gy/GBq. The adverse effects entry with prostate cancer is “mainly transient adverse effects”.

The values are drawn from US20250041461A1, “[177LU] LUTETIUM-PSMA I&T COMPOSITION AND DOSIMETRY, KIT, METHOD OF MAKING, AND METHOD OF USING THEREOF” (Curium US LLC, priority 2023, published 2025).
